Non-standard residues stand in square brackets, D forms with d. Residues, ends and D or L forms follow the SMILES beside them.
Experiments:
RFP-HDFs = experiment: Hydrogel-based in vivo cell delivery with RFP fluorescence imaging; set-up: species or system athymic nude mice
Excerpt: In vivo studies. Six- to eight-week-old non-tumor bearing female athymic nude mice were used for this experiment (n=3). Animal care was in accordance with the procedures outlined in the Guide for Care and Use of Laboratory Animals (National Research Council, 1996; National Academy Press, Washington, D.C.) and animal protocols were approved by the Frederick National Laboratory for Cancer Research (FNLCR) Institutional Animal Care and Use Committee.
Hydrogel-based in vivo cell transplantation. RFP-HDFs were encapsulated in 0.5 wt % AcVES3-RGDV at 10^7 cells mL^−1 as described in the 3D cell culture section. After gelation, the cell-peptide gel (10^6 cells per 100 μL) was injected into the left dorsal region of the mouse and as a control, RFP-HDF suspension in serum-free DMEM (10^6 cells per 100 μL) was injected into the right dorsal region of the mouse.
In vivo fluorescence imaging. Multispectral fluorescence imaging was performed daily (Monday-Friday) for 42 days using a Maestro Flex imager (PerkinElmer). Briefly, mice were anesthetized for 3-4 minutes in an induction chamber with 3% isoflurane with filtered air (0.2 μm filter) used as a carrier at a flow rate of 1 liter per minute. After isoflurane induction, the mice were transferred to an imaging chamber, where isoflurane was reduced to 2% and O2 was used as a carrier. The imaging platform was kept at 37° C. to maintain the mouse's internal temperature. Image acquisition (Maestro software, ver. 2.10.0) of the RFP fluorescence signal utilized a 533±26 nm excitation filter (placed in front of the 300 W xenon excitation source), a 580 nm long-pass filter (placed in front of the CCD) and implementing a multispectral imaging acquisition of 550-720 nm range, 10 nm increment, auto exposure (typically 0.5-5 seconds per emission wavelength), with a 2×2 pixel binning, resulting in a stack of images (image cube). RFP signal was distinguished from the tissue autofluorescence by employing vendor specified unmixing protocol. Quantitative analysis was performed by drawing a standard circular region of interest (ROI) over the injection site of the unmixed RFP component image. The total RFP signal (scaled counts second^−1) within each ROI was measured and plotted as a function of time.
Collection of RFP-HDFs from the tissue graft. After in vivo imaging on day 42, mice were euthanized using CO2 and ex vivo images (Maestro Software) were acquired by exposing the cell-peptide gel injection site. Image acquisition and processing were performed with the same parameters as performed for in vivo imaging as stated above. Utilizing the unmixed RFP image to guide resecting the RFP-positive tissue, the RFP positive cells were resected and then homogenized by squeezing them through a cell strainer. The collected cells were then cultured on a tissue culture plate with FBS-supplemented DMEM for 10 days and observed using an EVOS FL Auto Cell Imaging System.

[1] = tested on: human dermal fibroblasts (HDFs); experiment: 2D cell culture of HDFs on gel surfaces; format: cell-based; settings: for cell adhesion of HDFs on gel surface: Essential 8 Medium or serum-free DMEM
Experimental: 2D cell culture on peptide gels. Peptides were initially dissolved in water at 1 wt % on ice and mixed with an equal volume of ice-cold 2×HEPES buffer (50 mM HEPES, 300 mM NaCl, pH 7.4). The peptide solution (50 μL per well) was transferred to a non-tissue culture treated 96-well plates and incubated at 37° C. to initiate gelation. After 1 hour, HDFs (2×10^4 cells per 200 μL, per well) in serum-free DMEM, 10% FBS supplemented DMEM, or Essential 8 Medium (Thermo Fisher Scientific) were seeded on the peptide gels and cultured for 4 days. Bovine type I collagen gels (0.3 wt %, 50 μL per well) were prepared in 96-well plates following manufacturer's instructions.
Cell viability assay. Cell viability was evaluated by live and dead cell staining after 2D and 3D cell culture. Serum-free DMEM containing 1 μM calcein-AM and 2 μM ethidium homodimer-1 was added to the cells (200 μL per well for 2D culture and 500 μL each to the top and bottom of the gels for 3D culture). After incubation at 37° C. for 30 min, live and dead cells were visualized using EVOS FL Auto Cell Imaging System (Thermo Fisher Scientific). For the pseudo-colored composite image of varying heights of encapsulated cells, images of the live-stained cells were captured every 5 μm of height. Then Z-stack images for each 100 μm were flattened using the EVOS software, and the flattened images were pseudo-colored and merged using ImageJ.
Cell proliferation assay. A cell proliferation assay was performed using Cell Counting Kit-8 (CCK-8, Dojindo Molecular Technologies) for 2D and 3D cell culture. Serum-free DMEM containing 10% CCK-8 was added to the gels (200 μL per well for 2D culture; 500 μL to the top of the gels for 3D culture) and incubated for 2 hours at 37° C. Subsequently, media were transferred to 96-well plates (150 μL per well) and their absorbance measured at 450 nm relative to control viabilities from day 0 for 2D cell culture and day 1 for 3D cell culture. Experiments were performed in triplicate.
Cytoskeleton staining. For 2D cell culture, the peptide and collagen gels (70 μL) were prepared as described above on the glass bottom of 35 mm dishes (7 mm glass diameter, MatTek). HDFs in Essential 8 Medium (1.5×10^5 cells per 3 mL) were added to the dishes and incubated at 37° C. for 24 hours. Cells were fixed and permeabilized with 4% paraformaldehyde and 0.1% Triton X-100 in PBS for 15 min, and then blocked with 1% BSA in PBS. Cells were incubated with anti-vinculin antibody (hVIN-1, Sigma) for 1 hour at room temperature. Then, a goat anti-mouse IgG (H+L) cross-adsorbed secondary antibody, Rhodamine Red-X (2 μg mL^−1, Thermo Fisher Scientific), Alexa Fluor 488 phalloidin (5 units mL^−1, Thermo Fisher Scientific), and Hoechst 33342 (5 μg mL^−1, Invitrogen) in PBS were added to the dishes and incubated for 1 hour at room temperature. After washing, cells were visualized using an EVOS FL Auto Cell Imaging System.

`CC(=O)N[C@H](C(=O)N[C@@H](CCC(=O)O)C(=O)N[C@H](C(=O)N[C@@H](CO)C(=O)N[C@H](C(=O)N[C@@H](CO)C(=O)N[C@H](C(=O)N[C@@H](CCC(=O)O)C(=O)N[C@H](C(=O)N1CCC[C@@H]1C(=O)N1CCC[C@H]1C(=O)N[C@H](C(=O)N[C@@H](CCC(=O)O)C(=O)N[C@H](C(=O)N[C@@H](CO)C(=O)N[C@H](C(=O)N[C@@H](CCC(=O)O)C(=O)N[C@H](C(=O)N[C@@H](CCC(=O)O)C(=O)N[C@H](C(=O)NCC(=O)NCC(=O)NCC(=O)NCC(=O)N[C@@H](CCCNC(=N)N)C(=O)NCC(=O)N[C@@H](CC(=O)O)C(=O)N[C@H](C(N)=O)C(C)C)C(C)C)C(C)C)C(C)C)C(C)C)[C@@H](C)O)C(C)C)C(C)C)C(C)C)C(C)C)C(C)C` [AcVES3-RGDV] (Ac-VEVSVSVEV[dP]PTEVSVEVEVGGGGRGDV-NH2) was tested. Which “retention of cells after initial injection” value (RFP-HDFs; 10^6 RFP-HDFs per 100 μL gel) did it give?
Its value is “over 40 days”.

What about the “slowing of dissipation of injected cells versus cell suspension control” value (RFP-HDFs; 10^6 RFP-HDFs per 100 μL, dorsal injection, from slopes of the lines) of the same compound?
Its value is roughly 6 fold.

What about the “RFP signal still detected at injection site” value (RFP-HDFs; day 42) of the same compound?
The value was “approximately 2%”.

And the “inflammation around the injection site” value (RFP-HDFs; day 42, dissected subcutaneous tissue)?
Its value is “no apparent inflammation”.

And the “localization, retention and engraftment of delivered cells” value (RFP-HDFs; mouse, in vivo)?
The value was “dramatically enhance localization and retention of the delivered cells and also support engraftment”.

What about the “cell proliferation of HDFs, 2D culture” value ([1]; Essential 8 Medium, up to day 4) of the same compound?
Its value is “proliferated to a similar degree as cells on collagen gels”.

What about the “cytoskeleton organization and focal adhesions” value ([1]; day 1, Essential 8 Medium) of the same compound?
The value was “promoted organization of actin stress fibers and focal contacts”.

And the “cell adhesion of HDFs on gel surface” value ([1]; day 1)?
The value was “strongly attached and spread”.

What about the “cell adhesion of HDFs on gel surface” value ([1]; day 4) of the same compound?
The value was “remained adherent and viable”.
